Assay results published in paper PMC11325214 (2024).

System: L-Procaine aptamer (DNA, aptamer) GGCGACAAGGAAAATCCTTCAACGAAGGTGGGTGGCC
Experiment: E-AB square wave voltammetry, 3D-printed gold electrode cell
Details: undiluted human serum; in serum; immobilised aptamer; apparent; Hill fit

CCN(CC)CCOC(=O)c1ccc(N)cc1
EC50: 59.2 mM
